For 11 compounds, IC50 results are on record in US20240174662A1, “SMALL MOLECULE INHIBITORS OF SALT INDUCIBLE KINASES” (Janssen Biotech, Inc., priority 2021, published 2024).

The target in the test is SIK2 (Homo sapiens (Human), UniProt Q9H0K1). The experiment in a line: SIK2 Enzymatic Assay Version 2 (High ATP). Format: biochemical. The note with it: 3 mM ATP and 200 μM HDAC5tide final, ADP-Glo Max luminescence. Summed up: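 Run at room temperature; SIK2 enzyme at 6 nM (2× final) preincubated with compound 30 min before reaction. ADP formation detected by ADP-Glo Max (2 h reagent, 1 h detection) with luminescence read-out.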
For orientation: ADP-Glo turns the ADP formed in a reaction into a luminescent signal.

A value given as a limit tells only on which side of the number the result lay.

SIK2, sequence (Q9H0K1 whole entry, species assumed): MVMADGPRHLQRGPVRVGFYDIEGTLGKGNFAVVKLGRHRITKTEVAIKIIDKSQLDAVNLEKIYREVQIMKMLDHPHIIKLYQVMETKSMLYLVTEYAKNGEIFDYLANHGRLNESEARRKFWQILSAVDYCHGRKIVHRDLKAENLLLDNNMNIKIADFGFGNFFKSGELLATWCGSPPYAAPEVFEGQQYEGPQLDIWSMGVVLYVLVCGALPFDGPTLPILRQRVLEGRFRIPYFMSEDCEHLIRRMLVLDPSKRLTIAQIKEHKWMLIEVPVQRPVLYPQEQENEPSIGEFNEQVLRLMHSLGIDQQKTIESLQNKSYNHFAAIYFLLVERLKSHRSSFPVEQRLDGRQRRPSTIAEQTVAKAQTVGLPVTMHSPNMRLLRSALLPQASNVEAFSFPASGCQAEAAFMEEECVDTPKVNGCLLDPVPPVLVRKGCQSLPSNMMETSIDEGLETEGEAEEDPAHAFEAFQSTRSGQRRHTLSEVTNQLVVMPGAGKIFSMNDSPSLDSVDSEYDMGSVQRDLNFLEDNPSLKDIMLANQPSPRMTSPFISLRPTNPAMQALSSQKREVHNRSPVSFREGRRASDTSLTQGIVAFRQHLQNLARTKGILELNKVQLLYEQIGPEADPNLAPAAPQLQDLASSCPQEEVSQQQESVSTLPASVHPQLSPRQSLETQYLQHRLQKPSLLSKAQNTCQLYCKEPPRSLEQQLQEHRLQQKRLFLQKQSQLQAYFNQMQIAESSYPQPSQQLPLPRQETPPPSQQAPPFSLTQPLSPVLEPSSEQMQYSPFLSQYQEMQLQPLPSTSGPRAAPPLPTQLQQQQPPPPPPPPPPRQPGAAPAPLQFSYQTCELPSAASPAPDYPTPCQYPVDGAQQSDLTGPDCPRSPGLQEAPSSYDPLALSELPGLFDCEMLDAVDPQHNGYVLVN

Broadly, the IC50 is the midpoint of a concentration-inhibition curve. Low readings indicate greater potency, high ones weaker potency. Compound `Cn1ncc(OC[C@H]2CCN2CC(C)(C)C#N)c1-c1ccn2nc(NC(=O)C3CC3)cc2c1` [Example 255, N-[5-[4-[[(2R)-1-(2-cyano-2-methyl-propyl)azetidin-2-yl]methoxy]-2-methyl-pyrazol-3-yl]pyrazolo[1,5-a]pyridin-2-yl]cyclopropanecarboxamide] gave an IC50 of 51.8 nM.

Turning to `Cn1ncc(OCC2(N)CCC2)c1-c1ccn2nc(NC(=O)C3CC3)cc2c1` [Example 231, N-[5-[4-[(1-aminocyclobutyl)methoxy]-2-methyl-pyrazol-3-yl]pyrazolo[1,5-a]pyridin-2-yl]cyclopropanecarboxamide], the IC50 was determined as 46.9 nM.

`Cc1cc(Nc2cc3cc(-c4c(O[C@@H]5CCN[C@H]5C)cnn4C)ccn3n2)nc(C)n1` [Example 298, N-(2,6-dimethylpyrimidin-4-yl)-5-[2-methyl-4-[(2S,3R)-2-methylpyrrolidin-3-yl]oxy-pyrazol-3-yl]pyrazolo[1,5-a]pyridin-2-amine] had an IC50 of 39.2 nM.

Take `CN1CC[C@@H]1COc1cnn(C)c1-c1ccn2nc(NC(=O)[C@H]3C[C@H]3c3ccccc3)cc2c1` (single isomer, unassigned) [Example 159, (1*S,2*R)—N-(5-(1-methyl-4-(((R)-1-methylazetidin-2-yl)methoxy)-1H-pyrazol-5-yl)pyrazolo[1,5-a]pyridin-2-yl)-2-phenylcyclopropane-1-carboxamide]: half-maximal inhibition (IC50) was put at 24.2 nM.

On to `Cc1cnc(Nc2cc3cc(-c4c(COC5CN(C)CC5C)cnn4C)ccn3n2)cn1` (racemic) [Example 376, Rac-CIS-5-[4-[(1,4-dimethylpyrrolidin-3-yl)oxymethyl]-2-methyl-pyrazol-3-yl]-N-(5-methylpyrazin-2-yl)pyrazolo[1,5-a]pyridin-2-amine], for which the IC50 came out at 4.3 nM.

Compound `CN1CCC[C@H]1COc1cnn(C)c1-c1ccn2nc(NC(=O)C3CC3)cc2c1` [Example 419, N-[5-[2-methyl-4-[[(2S)-1-methylpyrrolidin-2-yl]methoxy]pyrazol-3-yl]pyrazolo[1,5-a]pyridin-2-yl]cyclopropanecarboxamide] gave an IC50 of 136 nM.

Regarding `CN1CC2(CCOCC2)C1COc1cnn(C)c1-c1ccn2nc(NC(=O)C3CC3)cc2c1` (racemic) [Example 13, (rac)-N-[5-[2-methyl-4-[(2-methyl-7-oxa-2-azaspiro[3.5]nonan-3-yl)methoxy]pyrazol-3-yl]pyrazolo[1,5-a]pyridin-2-yl]cyclopropanecarboxamide], inhibition was half-maximal at 71.5 nM (IC50).

On to `CN1CC[C@@H]1COc1cnn(C)c1-c1ccn2nc(NC(=O)[C@@H]3C[C@@H]3c3ccccc3)cc2c1` (single isomer, unassigned) [Example 474, (1*R,2*S)—N-(5-(1-methyl-4-(((R)-1-methylazetidin-2-yl)methoxy)-1H-pyrazol-5-yl)pyrazolo[1,5-a]pyridin-2-yl)-2-phenylcyclopropane-1-carboxamide], for which the IC50 was determined as 428 nM.

For `Cc1cc(Nc2cc3cc(-c4c(OC[C@@H]5CC6(CCC6)CO5)cnn4C)ccn3n2)nc(C)n1` (single isomer, unassigned) [Example 358, *S—N-(2,6-dimethylpyrimidin-4-yl)-5-[2-methyl-4-(7-oxaspiro[3.4]octan-6-ylmethoxy)pyrazol-3-yl]pyrazolo[1,5-a]pyridin-2-amine], inhibition was half-maximal at 53.5 nM (IC50).

With `CCN1CC[C@@H]1COc1cnn(C)c1-c1ccn2nc(Nc3cc(C)nc(C(F)F)n3)cc2c1` [Example 103, N-[2-(difluoromethyl)-6-methyl-pyrimidin-4-yl]-5-[4-[[(2R)-1-ethylazetidin-2-yl]methoxy]-2-methyl-pyrazol-3-yl]pyrazolo[1,5-a]pyridin-2-amine], the IC50 was less than 0.847 nM.

In turn, `Cc1cc(C(=O)NC(C)C)cc(Nc2cc3cc(-c4c(OC[C@H]5CCN5C)cnn4C)ccn3n2)n1` [Example 112, N-isopropyl-2-methyl-6-[[5-[2-methyl-4-[[(2R)-1-methylazetidin-2-yl]methoxy]pyrazol-3-yl]pyrazolo[1,5-a]pyridin-2-yl]amino]pyridine-4-carboxamide] gave an IC50 of 2.7 nM.
